Experimental findings from ChEMBL document CHEMBL5316337, “Critical Role of Position 10 Residue in the Polymyxin Antimicrobial Activity” (J Med Chem, 2023) are described below.

Series [1] concerns Pseudomonas aeruginosa. Kind of series: Antibacterial activity against polymyxin-susceptible Pseudomonas aeruginosa ATCC 27853 clinical isolates assessed as reduction in bacterial growth by broth microdilution method. It counts as functional. In general terms: Broth dilution looks for growth in wells or tubes with falling amounts of substance.
Series [2] has as its system Pseudomonas aeruginosa. The experiment in a line: Antibacterial activity against Carbapenem-resistant Pseudomonas aeruginosa FADD1-PA022 clinical isolates assessed as reduction in bacterial growth by broth microdilution method. It counts as functional.
Series [3] concerns Pseudomonas aeruginosa. The experiment in a line: Antibacterial activity against Carbapenem-resistant Pseudomonas aeruginosa FADD1-PA001 clinical isolates assessed as reduction in bacterial growth by broth microdilution method. The class given is functional.
The subject of series [4] is Pseudomonas aeruginosa. Kind of series: Antibacterial activity against polymyxin-susceptible Pseudomonas aeruginosa FADD1-PA038 clinical isolates assessed as reduction in bacterial growth by broth microdilution method. The class given is functional.
The test system of series [5] is Pseudomonas aeruginosa. The experiment in a line: Antibacterial activity against polymyxin-susceptible Pseudomonas aeruginosa FADD1-PA025 clinical isolates assessed as reduction in bacterial growth by broth microdilution method. It counts as functional.
The subject of series [6] is Acinetobacter baumannii. The experiment in a line: Antibacterial activity against polymyxin-susceptible Acinetobacter baumannii ATCC 19606 clinical isolates assessed as reduction in bacterial growth by broth microdilution method. The class given is functional.
Series [7] deals with Acinetobacter baumannii. The experiment in a line: Antibacterial activity against Carbapenem-resistant Acinetobacter baumannii FADD1-AB034 clinical isolates assessed as reduction in bacterial growth by broth microdilution method. It counts as functional.
For series [8], the system named is Acinetobacter baumannii. The experiment in a line: Antibacterial activity against polymyxin-susceptible Acinetobacter baumannii ATCC 17978 clinical isolates assessed as reduction in bacterial growth by broth microdilution method. It counts as functional.
The subject of series [9] is Acinetobacter baumannii. Kind of series: Antibacterial activity against Carbapenem-resistant Acinetobacter baumannii FADD1-AB030 clinical isolates assessed as reduction in bacterial growth by broth microdilution method. The class given is functional.
For series [10], the system named is Klebsiella pneumoniae. The experiment in a line: Antibacterial activity against Carbapenem-resistant Klebsiella pneumoniae FADD1-KP032 clinical isolates assessed as reduction in bacterial growth by broth microdilution method. The class given is functional.
The subject of series [11] is Klebsiella pneumoniae. Kind of series: Antibacterial activity against Carbapenem-resistant Klebsiella pneumoniae FADD1-KP022 clinical isolates assessed as reduction in bacterial growth by broth microdilution method. The class given is functional.
The subject of series [12] is Klebsiella pneumoniae. The experiment in a line: Antibacterial activity against Carbapenem-resistant Klebsiella pneumoniae BM1 clinical isolates assessed as reduction in bacterial growth by broth microdilution method. The class given is functional.
For series [13], the system named is Klebsiella pneumoniae. The experiment in a line: Antibacterial activity against polymyxin-susceptible Klebsiella pneumoniae ATCC 700721 clinical isolates assessed as reduction in bacterial growth by broth microdilution method. The class given is functional.
The test system of series [14] is Klebsiella pneumoniae. Kind of series: Antibacterial activity against Carbapenem-resistant Klebsiella pneumoniae FADD1-KP065 clinical isolates assessed as reduction in bacterial growth by broth microdilution method. The class given is functional.
For series [15], the system named is Enterobacter cloacae. The experiment in a line: Antibacterial activity against polymyxin-susceptible Enterobacter cloacae FADD1-EC006 clinical isolates assessed as reduction in bacterial growth by broth microdilution method. It counts as functional.
For series [16], the system named is Enterobacter cloacae. Kind of series: Antibacterial activity against polymyxin-susceptible Enterobacter cloacae FADD1-EC001 clinical isolates assessed as reduction in bacterial growth by broth microdilution method. It counts as functional.
The test system of series [17] is Enterobacter cloacae. The experiment in a line: Antibacterial activity against polymyxin-susceptible Enterobacter cloacae FADD1-EC003 clinical isolates assessed as reduction in bacterial growth by broth microdilution method. The class given is functional.
Series [18] in a line: Acute toxicity in Swiss mouse assessed as maximum tolerated dose administered intravenously measured over 24 hrs. Particulars: in vivo, route iv.
A short description of series [19]: Nephrotoxicity in Swiss mouse assessed as histopathological changes in kidney by measuring semiquantitative score at 12 mg/kg, sc administered as free base every 2 hrs for 6 doses and measured at 20 hrs. It counts as toxicity, organism-based. To be noted: in vivo.

Each structure is given as a SMILES string. Converted amounts (≈) assume the structure as drawn. Bridge positions count the residues as written; N and C are the ends. Square brackets hold non-standard residues; d marks the D form. Peptide text beside a SMILES is read from it. * marks the point of attachment. X1 = CC[C@H](C)CCCCC(=O)*; Dab = NCC[C@H](N)C(=O)O

The MIC is the lowest concentration that inhibits growth of the organism. As a reminder, the MTD is the largest dose that counted as tolerated. On to `CC[C@H](C)CCCCC(=O)N[C@@H](CCN)C(=O)N[C@H](C(=O)N[C@@H](CCN)C(=O)N[C@H]1CCNC(=O)[C@H]([C@H](C)O)NC(=O)[C@H](CCN)NC(=O)[C@H](CCN)NC(=O)[C@H](CC(C)C)NC(=O)[C@@H](Cc2ccccc2)NC(=O)[C@H](CCN)NC1=O)[C@@H](C)O`, for which the MIC in the series on Pseudomonas aeruginosa [1] stood at 1 µg/mL (≈ 0.831 µM); with Pseudomonas aeruginosa [2], 1 µg/mL (≈ 0.831 µM); in the series on Pseudomonas aeruginosa [3], 1 µg/mL (≈ 0.831 µM); in the series with Pseudomonas aeruginosa [4], 4 µg/mL (≈ 3.32 µM); in the series with Pseudomonas aeruginosa [5], 2 µg/mL (≈ 1.66 µM); with Acinetobacter baumannii [6], 8 µg/mL (≈ 6.65 µM). Besides, the MIC was 2 µg/mL (≈ 1.66 µM) in the series with Acinetobacter baumannii [7]; 4 µg/mL (≈ 3.32 µM) in the series with Acinetobacter baumannii [8]; 2 µg/mL (≈ 1.66 µM) in the series with Acinetobacter baumannii [9]; 2 µg/mL (≈ 1.66 µM) in the series on Klebsiella pneumoniae [10]; 0.25 µg/mL (≈ 0.208 µM) in the series with Klebsiella pneumoniae [11]; 1 µg/mL (≈ 0.831 µM) in the series on Klebsiella pneumoniae [12]. For the same molecule, the MIC with Klebsiella pneumoniae [13] amounted to 1 µg/mL (≈ 0.831 µM); in the series on Klebsiella pneumoniae [14], 0.5 µg/mL (≈ 0.415 µM); in the series on Enterobacter cloacae [15] it was 8 µg/mL (≈ 6.65 µM); in the series on Enterobacter cloacae [16], 2 µg/mL (≈ 1.66 µM); in the series on Enterobacter cloacae [17] it was 1 µg/mL (≈ 0.831 µM). Further, the MTD at 24 h in [18] came to 4.1 mg/kg. Also, the Activity in [19] is listed as 0.

For `CC[C@H](C)CCCCC(=O)N[C@@H](CCN)C(=O)N[C@H](C(=O)N[C@@H](CCN)C(=O)N[C@H]1CCNC(=O)[C@H](CC(C)C)NC(=O)[C@H](CCN)NC(=O)[C@H](CCN)NC(=O)[C@H](CC(C)C)NC(=O)[C@@H](Cc2ccccc2)NC(=O)[C@H](CCN)NC1=O)[C@@H](C)O` (X1-[Dab]T[Dab][Dab][Dab][dF]L[Dab][Dab]L; lactam 4-C), the MIC is 2 µg/mL (≈ 1.65 µM) with Pseudomonas aeruginosa [1]; 1 µg/mL (≈ 0.823 µM) in the series on Pseudomonas aeruginosa [2]; 1 µg/mL (≈ 0.823 µM) in the series with Pseudomonas aeruginosa [3]; 2 µg/mL (≈ 1.65 µM) in the series on Pseudomonas aeruginosa [4]; 2 µg/mL (≈ 1.65 µM) with Pseudomonas aeruginosa [5]; 16 µg/mL (≈ 13.2 µM) in the series on Acinetobacter baumannii [6]. The minimum inhibitory concentration (MIC) amounted to 8 µg/mL (≈ 6.58 µM) in the series with Acinetobacter baumannii [7]; 2 µg/mL (≈ 1.65 µM) in the series with Acinetobacter baumannii [8]; 1 µg/mL (≈ 0.823 µM) in the series on Acinetobacter baumannii [9]; 4 µg/mL (≈ 3.29 µM) with Klebsiella pneumoniae [10]; 0.25 µg/mL (≈ 0.206 µM) with Klebsiella pneumoniae [11]; 2 µg/mL (≈ 1.65 µM) with Klebsiella pneumoniae [12]. The MIC in the series with Klebsiella pneumoniae [13] came to 4 µg/mL (≈ 3.29 µM); with Klebsiella pneumoniae [14], 0.5 µg/mL (≈ 0.411 µM); in the series with Enterobacter cloacae [15], 4 µg/mL (≈ 3.29 µM); in the series with Enterobacter cloacae [16], 2 µg/mL (≈ 1.65 µM); with Enterobacter cloacae [17], 4 µg/mL (≈ 3.29 µM). The maximum tolerated dose (MTD) at 24 h in series [18] was determined as 6.1 mg/kg.

`CC[C@H](C)CCCCC(=O)N[C@@H](CCN)C(=O)N[C@H](C(=O)N[C@@H](CCN)C(=O)N[C@H]1CCNC(=O)[C@H](C)NC(=O)[C@H](CCN)NC(=O)[C@H](CCN)NC(=O)[C@H](CC(C)C)NC(=O)[C@@H](Cc2ccccc2)NC(=O)[C@H](CCN)NC1=O)[C@@H](C)O`: the MIC with Pseudomonas aeruginosa [1] was found to be 1 µg/mL (≈ 0.852 µM); in the series with Pseudomonas aeruginosa [2], 1 µg/mL (≈ 0.852 µM); with Pseudomonas aeruginosa [3], 1 µg/mL (≈ 0.852 µM); in the series on Pseudomonas aeruginosa [4], 8 µg/mL (≈ 6.82 µM); in the series with Pseudomonas aeruginosa [5] it was 1 µg/mL (≈ 0.852 µM); in the series on Acinetobacter baumannii [6], 1 µg/mL (≈ 0.852 µM). Further, the MIC in the series with Acinetobacter baumannii [7] amounted to 1 µg/mL (≈ 0.852 µM); in the series with Acinetobacter baumannii [8], 1 µg/mL (≈ 0.852 µM); in the series with Acinetobacter baumannii [9], 1 µg/mL (≈ 0.852 µM); in the series on Klebsiella pneumoniae [10], 1 µg/mL (≈ 0.852 µM); in the series on Klebsiella pneumoniae [11] it was 0.5 µg/mL (≈ 0.426 µM); in the series with Klebsiella pneumoniae [12] it was 2 µg/mL (≈ 1.7 µM). The minimum inhibitory concentration (MIC) with Klebsiella pneumoniae [13] was found to be 4 µg/mL (≈ 3.41 µM); with Klebsiella pneumoniae [14], 0.5 µg/mL (≈ 0.426 µM); in the series on Enterobacter cloacae [15], 4 µg/mL (≈ 3.41 µM); in the series on Enterobacter cloacae [16], 2 µg/mL (≈ 1.7 µM); in the series on Enterobacter cloacae [17] it was 1 µg/mL (≈ 0.852 µM). Further, the MTD at 24 h in [18] was 2.7 mg/kg. Also, the Activity in [19] was 0.

Turning to `CC[C@H](C)CCCCC(=O)N[C@@H](CCN)C(=O)N[C@H](C(=O)N[C@@H](CCN)C(=O)N[C@H]1CCNC(=O)[C@H](CO)NC(=O)[C@H](CCN)NC(=O)[C@H](CCN)NC(=O)[C@H](CC(C)C)NC(=O)[C@@H](Cc2ccccc2)NC(=O)[C@H](CCN)NC1=O)[C@@H](C)O`, the MIC in the series with Pseudomonas aeruginosa [1] amounted to 0.5 µg/mL (≈ 0.42 µM); in the series with Pseudomonas aeruginosa [2], 0.5 µg/mL (≈ 0.42 µM); in the series with Pseudomonas aeruginosa [3], 0.5 µg/mL (≈ 0.42 µM); with Pseudomonas aeruginosa [4] it was 1 µg/mL (≈ 0.841 µM); with Pseudomonas aeruginosa [5] it was 2 µg/mL (≈ 1.68 µM); in the series with Acinetobacter baumannii [6], 2 µg/mL (≈ 1.68 µM). Besides, the MIC in the series on Acinetobacter baumannii [7] is 1 µg/mL (≈ 0.841 µM); with Acinetobacter baumannii [8], 1 µg/mL (≈ 0.841 µM); in the series with Acinetobacter baumannii [9], 1 µg/mL (≈ 0.841 µM); in the series on Klebsiella pneumoniae [10], 0.25 µg/mL (≈ 0.21 µM); in the series on Klebsiella pneumoniae [11], < 0.125 µg/mL; in the series on Klebsiella pneumoniae [12] it was 0.25 µg/mL (≈ 0.21 µM). For the same molecule, the minimal inhibitory concentration (MIC) in the series on Klebsiella pneumoniae [13] amounted to 0.5 µg/mL (≈ 0.42 µM); in the series on Klebsiella pneumoniae [14], 0.25 µg/mL (≈ 0.21 µM); with Enterobacter cloacae [15], 0.5 µg/mL (≈ 0.42 µM); with Enterobacter cloacae [16], 0.5 µg/mL (≈ 0.42 µM); in the series with Enterobacter cloacae [17] it was 0.25 µg/mL (≈ 0.21 µM). Also, the MTD at 24 h in [18] was 4.1 mg/kg.
